Laboratory results as given in patent publication US6638912B2, “Peptide compositions mimicking TGF-β activity” (The Regents of the University of California, priority 1995, dated 2003).
Entries after “also recorded” stand apart in the source; their conditions may differ. Where two headings read alike, the source gives them in different places. Square brackets hold non-standard residues; d marks the D form. Ends that are not written are not given here. NMeA = CN[C@@H](C)C(=O)O; Abu = CC[C@H](N)C(=O)O; Aib = CC(C)(N)C(=O)O

Assays:
[1] = test system: Mv-1-Lu mink lung epithelial cells; test: Inhibition of DNA synthesis (3H-thymidine incorporation) and proliferation of Mv-1-Lu cells; assay type: cell-based; conditions: for Inhibition in comparison to cytomodulin (Inhib by new peptide/Inhib by cytomodulin): 3H-thymidine incorporation, MV-1-Lu cells; for Inhibition of DNA synthesis / proliferation of Mv-1-Lu cells (in words): 10−9 to 10−6 M range; for % Inhibition of incorporation of 3H-thymidine / 3H-Radioactivity: MV-1 Lu cells; for 3H-Radioactivity: control without peptide 3.57; for Bioactivity as agonist (tested as for DNA inhibition): Example 7
Experimental: The effect of TGF-β and cytomodulin were evaluated by determining the rate of […]thyidine incorporation into total acid-insoluble DNA and cell number. See generally, Sampath et al., Journal of Biological Chemistry, 267, pp. 20352-20362 (1992). DNA synthesis rates were determined in triplicate cultures after 24 hour treatment with various concentrations (10−9 M to 10^−6M) of either TGF-β or cytomodulin (which was synthesized by the Merrifield method) by adding [methyl-^3H]thymidine (2 μCi/ml, 80 Ci/mmol) for 6 hours before the termination of the culture. Incorporation was terminated by aspiration of the medium, and after washing three times with phosphate-buffered saline, the trichloroacetic acid (10%)-precipitated radioactive DNA was extracted with 1.0% (w/v) sodium dodecyl sulfate, 0.1 M NaOH and quantitated by liquid scintillation counting. For cell number determination, 1×10^5 cells were plated in flasks in MEM containing 10% FBS, and after 24 hours, the growth medium was replaced with serum-free medium containing various conceptions of TGF-β and cytomodulin. Triplicate cultures were harvested every 24 hours for the duration of 7 days, and the cell number was determined by counting cells released by trypsin digestion in a fixed volume hemacytometer.
The numbers shown at the various concentration are the ratio of the inhibition rate of the peptide being tested over the inhibition rate of cytomodulin (SEQ ID NO: 1) at the same concentration.
Tests for bioactivity were conducted as described above for DNA inhibition.

[2] = test system: NRK-49 F normal rat kidney fibroblasts; test: Growth and colony formation by NRK-49 F fibroblasts in soft agar; assay type: cell-based; conditions: for Colony formation in soft agar: 100 nM
Experimental: The original assay for TGF-β, the ability to promote anchorage independent growth of normal fibroblasts is still one of the hallmarks of TGF-β activity. NRK-49 F fibroblasts were grown at 37° C. in DEM supplemented with 10% fetal calf serum. […] To this, either 100 nM TGF-β (positive control) or 100 nM cytomodulin was added. NRK49 F fibroblasts (5×10^4 cells/ml) were mixed with 0.3% agar were plated on the bottom of 35 mm culture dishes. Colony formation was observed starting on day 3 of culture.

human dermal fibroblasts = test: Gene expression in human dermal fibroblasts (Northern analysis); assay type: cell-based
Experimental: (§1) Total cellular RNA was isolated using essentially the method described by Maniatis. Sambrook et al., Molecular Cloning: A Laboratory Marual, Cold Spring Harbor Laboratory Press, Second Edition (1989). Cells were lysed with 0.5% SDS and 0.1 potassium acetate. The lysate was extracted with phenol and centrifuiged at 5000 rpm for 15 minutes. The aqueous phase was precipitated with 2 volumes ethanol in 0.1 M Tris, pH 8.0 and 0.2 M NaCl. The pellet was resuspended and quantitated by measuring the ultraviolet absorbance at 260 nm. RNA purity was assessed by comparing the ultraviolet absorbance at 260 inm with that at 280 nm.
(§2) RNA (10 μg/lane) was electrophoresed at 3 to 4 v/cm through a 0.7% agarose, 2.2 M formaldehyde denaturing gel. RNA was transferred by capillary transfer to nylon membranes. RNA integrity, gel loading, and transfer efficiency were assessed by methylene blue stained 28S and 18 S bands. The filters were baked at 80° C. for 2 hours to immobilize the RNA. After baking, the filters were hybridized at 65° C. in 0.5 M NaPO4 buffer, pH 7.0, containing 1 mM EDTA, 7% sodium dodecyl sulfate, and 1% bovine serum albumin. cDNA probes were labeled with DDIG […] by the random primer method, using Klenow enzyme. Hybridization for 18 hours at 65° C. followed by washing, was performed.
(§3) Data were analyzed by scanning digoxigenin-dVTP according to manufacturer's procedure (Boehringer Mannheim Biochemica, DIG DNA labelling kit, Cat. No. 1175033).

[3] = test system: human osteogenic sarcoma (HOS) cell line; test: Gene expression in HOS cells (Northern analysis); assay type: cell-based
Experimental: as §1, §2, §3

TGF-β activity = test: TGF-β like activity, overall statement, test not specified; assay type: cell-based
[4] = test system: NRK-49 F normal rat kidney fibroblasts; conditions: in the absence of EGF and PDGF; from Massagu, J. Biol. Chem. 259 (1984); cited from earlier work
[5] = 1 mM peptide (so in the source)

A-N-V-A-E-K (ANVAEK; TGF-beta mimic) [SEQ ID NO:15]
Inhibition in comparison to cytomodulin (Inhib by new peptide/Inhib by cytomodulin) ([1]; 10 nM): 0.80
Inhibition in comparison to cytomodulin (Inhib by new peptide/Inhib by cytomodulin) ([1]; 100 nM): 1.00

A-N-V-A-E-N-A (ANVAENA; TGF-beta mimic) [cytomodulin]
Inhibition of DNA synthesis / proliferation of Mv-1-Lu cells (in words) [1]: inhibition of DNA synthesis; also recorded: at least as much as TGF-β
Colony formation in soft agar ([2]; with EGF and PDGF): formed colonies to approximately the same extent as the TGF-β cultures; also recorded: much larger colonies
Colony formation in soft agar ([2]; without EGF and PDGF): did induce colony formation; also recorded: formation of small colonies
Expression of type I collagen (human dermal fibroblasts): induction of increased expression
Expression of TGF-β [3]: increased the expression
Expression of alkaline phosphatase [3]: stimulate; also recorded: increased the expression
Expression of osteonectin [3]: stimulate
Expression of type I collagen [3]: increased the expression

E-G-I-A-G-K (EGIAGK; TGF-beta mimic) [SEQ ID NO:8]
TGF-β like activity (TGF-β activity): did not display significant TGF-β activity

G-G-Q-I-A-N-I (GGQIANI; TGF-beta mimic) [SEQ ID NO:7]
TGF-β like activity (TGF-β activity): did not display significant TGF-β activity

L-(Abu)-A-E-A-K (L[Abu]AEAK) [SEQ ID NO:6]
% Inhibition of incorporation of 3H-thymidine ([1]; 1 nM peptide): 33%
3H-Radioactivity ([1]; 1 nM peptide): 2.02 10^3 dpm
% Inhibition of incorporation of 3H-thymidine ([1]; 5 nM peptide): 35%
3H-Radioactivity ([1]; 5 nM peptide): 1.97 10^3 dpm

L-(Aib)-A-E-A-K (L[Aib]AEAK) [SEQ ID NO:4]
% Inhibition of incorporation of 3H-thymidine ([1]; 5 nM peptide): 35%
3H-Radioactivity ([1]; 5 nM peptide): 2.31 10^3 dpm
% Inhibition of incorporation of 3H-thymidine ([1]; 50 nM peptide): 46%
3H-Radioactivity ([1]; 50 nM peptide): 1.94 10^3 dpm
% Inhibition of incorporation of 3H-thymidine ([1]; 100 nM peptide): 60%
3H-Radioactivity ([1]; 100 nM peptide): 1.44 10^3 dpm
% Inhibition of incorporation of 3H-thymidine ([1]; 500 nM peptide): 55%
3H-Radioactivity ([1]; 500 nM peptide): 1.61 10^3 dpm
% Inhibition of incorporation of 3H-thymidine [1, 5]: 27%
3H-Radioactivity [1, 5]: 2.60 10^3 dpm

L-I-(Aib)-E-A-K (LI[Aib]EAK) [SEQ ID NO:22]
Bioactivity as agonist (tested as for DNA inhibition) [1]: active as an agonist

L-I-(D-Ala)-E-A-K (LI[dA]EAK) [SEQ ID NO:39]
Bioactivity as agonist (tested as for DNA inhibition) [1]: active as an agonist

L-I-(Nme-A)-E-A-K (LI[NMeA]EAK) [SEQ ID NO:5]
% Inhibition of incorporation of 3H-thymidine ([1]; 1 nM peptide): 47%
3H-Radioactivity ([1]; 1 nM peptide): 1.61 10^3 dpm
% Inhibition of incorporation of 3H-thymidine ([1]; 5 nM peptide): 42%
3H-Radioactivity ([1]; 5 nM peptide): 1.76 10^3 dpm
% Inhibition of incorporation of 3H-thymidine ([1]; 50 nM peptide): 41%
3H-Radioactivity ([1]; 50 nM peptide): 1.60 10^3 dpm
% Inhibition of incorporation of 3H-thymidine ([1]; 100 nM peptide): 40%
3H-Radioactivity ([1]; 100 nM peptide): 1.81 10^3 dpm
% Inhibition of incorporation of 3H-thymidine ([1]; 500 nM peptide): 53%
3H-Radioactivity ([1]; 500 nM peptide): 1.42 10^3 dpm

L-I-A-D-A-K (LIADAK; TGF-beta mimic) [SEQ ID NO:9]
Inhibition in comparison to cytomodulin (Inhib by new peptide/Inhib by cytomodulin) ([1]; 1 nM): 0.45
Inhibition in comparison to cytomodulin (Inhib by new peptide/Inhib by cytomodulin) ([1]; 10 nM): 0.87
Inhibition in comparison to cytomodulin (Inhib by new peptide/Inhib by cytomodulin) ([1]; 100 nM): 1.14
Inhibition in comparison to cytomodulin (Inhib by new peptide/Inhib by cytomodulin) ([1]; 1000 nM): 1.25

L-I-A-E-A-A (LIAEAA; TGF-beta mimic) [SEQ ID NO:11]
Inhibition in comparison to cytomodulin (Inhib by new peptide/Inhib by cytomodulin) ([1]; 1 nM): 1.16
Inhibition in comparison to cytomodulin (Inhib by new peptide/Inhib by cytomodulin) ([1]; 10 nM): 1.00
Inhibition in comparison to cytomodulin (Inhib by new peptide/Inhib by cytomodulin) ([1]; 100 nM): 1.17
Inhibition in comparison to cytomodulin (Inhib by new peptide/Inhib by cytomodulin) ([1]; 1000 nM): 1.85
Inhibition of DNA synthesis / proliferation of Mv-1-Lu cells (in words) [1]: at least as much activity as cytomodulin

L-I-A-E-A-K (LIAEAK; TGF-beta mimic) [L2]
Inhibition of DNA synthesis / proliferation of Mv-1-Lu cells (in words) [1]: inhibited the proliferation
Growth and colony formation of NRK-49F cells in soft agar (in words) [2]: promoted the growth
Expression of TGF-β (human dermal fibroblasts): increased the expression
Expression of collagenase (human dermal fibroblasts): decreased the expression
Expression of type I collagen (human dermal fibroblasts): increased the expression
Expression of TGF-β [3]: increased the expression
Expression of alkaline phosphatase [3]: increased the expression
Expression of type I collagen [3]: increased the expression
TGF-β like activity (TGF-β activity): at least as much TGF-β like activity as cytomodulin

L-I-A-G-E-G (LIAGEG; TGF-beta mimic) [SEQ ID NO:14]
Inhibition in comparison to cytomodulin (Inhib by new peptide/Inhib by cytomodulin) ([1]; 1 nM): 0.66
Inhibition in comparison to cytomodulin (Inhib by new peptide/Inhib by cytomodulin) ([1]; 10 nM): 0.85
Inhibition in comparison to cytomodulin (Inhib by new peptide/Inhib by cytomodulin) ([1]; 100 nM): 1.41
Inhibition in comparison to cytomodulin (Inhib by new peptide/Inhib by cytomodulin) ([1]; 1000 nM): 1.88

L-I-A-G-G-E (LIAGGE; TGF-beta mimic) [SEQ ID NO:13]
Inhibition in comparison to cytomodulin (Inhib by new peptide/Inhib by cytomodulin) ([1]; 1 nM): 1.10
Inhibition in comparison to cytomodulin (Inhib by new peptide/Inhib by cytomodulin) ([1]; 10 nM): 1.33
Inhibition in comparison to cytomodulin (Inhib by new peptide/Inhib by cytomodulin) ([1]; 100 nM): 1.45
Inhibition in comparison to cytomodulin (Inhib by new peptide/Inhib by cytomodulin) ([1]; 1000 nM): 1.90
Inhibition of DNA synthesis / proliferation of Mv-1-Lu cells (in words) [1]: inhibits thymidine uptake more than SEQ ID NO: 14

L-I-A-K-G-K (LIAKGK; TGF-beta mimic) [SEQ ID NO:16]
Inhibition in comparison to cytomodulin (Inhib by new peptide/Inhib by cytomodulin) ([1]; 10 nM): 0.65
Inhibition in comparison to cytomodulin (Inhib by new peptide/Inhib by cytomodulin) ([1]; 100 nM): 0.67

L-I-A-N-A-K (LIANAK; TGF-beta mimic) [SEQ ID NO:10]
Inhibition in comparison to cytomodulin (Inhib by new peptide/Inhib by cytomodulin) ([1]; 1 nM): 1.70
Inhibition in comparison to cytomodulin (Inhib by new peptide/Inhib by cytomodulin) ([1]; 10 nM): 2.00
Inhibition in comparison to cytomodulin (Inhib by new peptide/Inhib by cytomodulin) ([1]; 100 nM): 1.43
Inhibition in comparison to cytomodulin (Inhib by new peptide/Inhib by cytomodulin) ([1]; 1000 nM): 3.05
Inhibition of DNA synthesis / proliferation of Mv-1-Lu cells (in words) [1]: even more than cytomodulin at every concentration tested

L-I-A-P-E-A (LIAPEA; TGF-beta mimic) [L1]
Inhibition of DNA synthesis / proliferation of Mv-1-Lu cells (in words) [1]: inhibited the proliferation
Growth and colony formation of NRK-49F cells in soft agar (in words) [2]: promoted the growth
Expression of TGF-β (human dermal fibroblasts): increased the expression
Expression of collagenase (human dermal fibroblasts): decreased the expression
Expression of type I collagen (human dermal fibroblasts): increased the expression
Expression of TGF-β [3]: increased the expression
Expression of alkaline phosphatase [3]: increased the expression
Expression of type I collagen [3]: increased the expression
TGF-β like activity (TGF-β activity): at least as much TGF-β like activity as cytomodulin

L-I-A-Q-A-K (LIAQAK; TGF-beta mimic) [SEQ ID NO:12]
Inhibition in comparison to cytomodulin (Inhib by new peptide/Inhib by cytomodulin) ([1]; 1 nM): 0.90
Inhibition in comparison to cytomodulin (Inhib by new peptide/Inhib by cytomodulin) ([1]; 10 nM): 1.10
Inhibition in comparison to cytomodulin (Inhib by new peptide/Inhib by cytomodulin) ([1]; 100 nM): 0.80
Inhibition in comparison to cytomodulin (Inhib by new peptide/Inhib by cytomodulin) ([1]; 1000 nM): 1.56

L-I-P-E-A-K (LIPEAK; TGF-beta mimic) [SEQ ID NO:21]
Bioactivity as agonist (tested as for DNA inhibition) [1]: active as an agonist

TGF-β
Colony formation in soft agar ([2]; with EGF and PDGF): grew colonies
Colony formation in soft agar [4]: does not induce colony formation
